Patent US12616751B2, “Photosensitizing antibody-fluorophore conjugates” (The USA, as represented by the Secretary, Department of …, priority 2010, dated 2026)

How the values were obtained:
A431 cells [1] = assay: Fluorescence microscopy of Pan-IR700 in A431 cells; assay type: cell-based; details: after 24 h incubation
Protocol: (§1) EGFR-expressing A431 cells were used as the target HER1+ cells. […] Cells were grown in RPMI 1640 supplemented with 10% fetal bovine serum and 1% penicillin/streptomycin in tissue culture flasks in a humidified incubator at 37° C. in an atmosphere of 95% air and 5% carbon dioxide. A431 or Balb/3T3/DsRed cells were seeded on cover glass-bottomed dishes and incubated for 24 hours. Pan-IR700 was added to the culture medium at 10 μg/mL and incubated either for 1 hour on ice or 6 hours at 37° C., then cells were washed with PBS. Culture medium was replaced with phenol red-free medium after washing with phosphate buffered saline (PBS).
Fluorescence microscopy was performed as described in Example 2 to detect the antigen-specific localization of IR700.
Reagents. […] The protein concentrations were determined with Coomassie Plus protein assay kit (Pierce Biotechnology) by measuring light absorption at 595 nm (8453 Value System; Agilent Technologies). […] Quenching efficiency (QE) for a particular conjugation is defined as the fluorescence intensity with SDS divided by fluorescence intensity without SDS. […] Fluorescence lifetime measurements. […] Lifetime values and lifetime mapping were calculated to fit fluorescence temporal point-spread functions (TPSFs) as single-exponential models with the Fit TPSF tool. […] Power densities were measured with an optical power meter (PM 100, Thorlabs). […]

A431 (HER1+) tumors = assay: In vivo PIT efficacy in A431 tumors
Protocol: To determine the effect of Pan-IR700 or carrier alone followed by PIT, the following methods were used. […] Four days after A431 cell injection as described above, tumor volume reaching around 40 mm^3 were selected for the study. […] To test a short-term toxicity, 300 μg of Pan-IR700 was repeatedly administrated intravenously for non-tumor-bearing mice, twice a week, for 4 weeks.

A431 cells [2] = assay type: cell-based
Protocol: as §1
PIT was performed as described in Examples 2 and 3.

Pan-IR700: Panitumumab (anti-human EGFR IgG2 MAb) conjugated to IR700; about 3 to 4 IR700 per antibody
cell damage following exposure to NIR light (A431 cells [1]): immediate damage was induced in the cell membranes and lysosomes
tumor shrinkage of irradiated tumor (A431 (HER1+) tumors; 300 μg, NIR light on day 1): Tumor shrinkage was confirmed on day 7
survival time (A431 (HER1+) tumors; 30 J cm^−2): significant increases in survival time
tumor growth (A431 (HER1+) tumors; 30 J cm^−2, day 3, 7, 10, 14 and 17 after treatment): significant tumor growth inhibition
lethal side effects (A431 (HER1+) tumors; during or after the treatment): no lethal side effects were found
antitumor activity, 50 μg versus 300 μg (A431 (HER1+) tumors; following irradiation): less antitumor activity
pathological analysis of tumor (A431 (HER1+) tumors; four days following PIT): only scant viable A431 tumor cells were present
day at which PIT treated tumors began to shrink (A431 (HER1+) tumors; mouse, in vivo): 2 days
tissue edema (A431 (HER1+) tumors; mouse, in vivo): tissue edema developed superficially
cytotoxicity without excitation light (A431 cells [2]): no significant cytotoxicity
cell death after irradiation (A431 cells [2]; 0.5 to 2 J cm^−2): rapid cell death in a dose-dependent manner
cell killing by PIT (microscopy) (A431 cells [2]; FIG. 8): specifically killed
target-specific phototoxicity in co-culture (A431 cells [2]; co-cultured with Balb/3T3/DsRed (HER1 negative) cells): Target-specific phototoxicity was also confirmed
